Experiments:
DotBL = molecular target: T1, DotBL (Legionella pneumophila, UniProt O52185)
T1 construct: gene dotB

[1] = molecular target: DotB from the dot/icm system encoded by the L. pneumophila genome (DotBL), wild type (L. pneumophila) (UniProt Q5ZS43); test: SEC-MALS

Row | Molecule | malachite green phosphate release, inhibition after 10 min preincubation (DotBL) | stoichiometry N [1]
1 | Nc1ncnc2c1ncn2[C@@H]1O[C@H](COP(=O)(O)OP(=O)(O)NP(=O)(O)O)[C@@H](O)[C@H]1O [AMP–PNP] | the analogue binds and competes with ATP resulting in an inhibition of phosphate release | –
2 | DotB from the dot/icm system encoded by the L. pneumophila genome (DotBL), wild type (from UniProt Q5ZS43 1-387) (enzyme) | – | 6
